In ChEMBL document CHEMBL5385847, “Design, synthesis and biological evaluation of a new class of 7H-pyrrolo[2,3-d]pyrimidine derivatives as Mps1 inhibitors for the treatment of breast cancer” (Eur J Med Chem, 2023) one finds IC50 and Activity data, which are given here for 26 compounds.

The structures appear in SMILES notation. The source made the active and inactive calls. The calls are words filed in the database; no cut-off is given here.

Test [1] has as its target T1, Dual specificity protein kinase TTK (Homo sapiens, UniProt P33981).
T1 sequence (P33981 whole entry): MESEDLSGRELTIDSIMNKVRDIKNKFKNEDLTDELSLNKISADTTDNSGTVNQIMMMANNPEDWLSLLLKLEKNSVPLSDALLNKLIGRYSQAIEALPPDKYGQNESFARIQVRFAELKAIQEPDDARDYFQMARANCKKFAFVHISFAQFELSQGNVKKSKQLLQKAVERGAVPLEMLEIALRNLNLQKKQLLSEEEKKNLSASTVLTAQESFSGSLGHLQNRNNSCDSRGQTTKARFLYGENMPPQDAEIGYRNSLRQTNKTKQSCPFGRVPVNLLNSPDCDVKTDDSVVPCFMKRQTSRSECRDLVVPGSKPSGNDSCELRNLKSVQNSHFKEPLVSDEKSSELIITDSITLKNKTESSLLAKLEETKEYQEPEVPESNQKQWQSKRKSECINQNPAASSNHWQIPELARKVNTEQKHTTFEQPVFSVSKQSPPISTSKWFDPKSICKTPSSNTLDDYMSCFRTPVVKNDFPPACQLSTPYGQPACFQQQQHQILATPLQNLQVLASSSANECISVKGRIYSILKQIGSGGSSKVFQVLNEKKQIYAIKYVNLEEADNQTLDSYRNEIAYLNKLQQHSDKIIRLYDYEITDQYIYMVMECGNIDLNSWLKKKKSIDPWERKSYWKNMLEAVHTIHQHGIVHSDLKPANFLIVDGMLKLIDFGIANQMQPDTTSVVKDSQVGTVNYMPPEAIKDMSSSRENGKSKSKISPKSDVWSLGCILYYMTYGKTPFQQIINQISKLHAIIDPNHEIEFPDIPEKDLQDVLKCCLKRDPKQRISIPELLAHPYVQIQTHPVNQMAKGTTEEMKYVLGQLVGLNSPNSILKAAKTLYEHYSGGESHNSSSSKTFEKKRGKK
Put plainly: Inhibition of Mps1 (unknown origin) incubated for 120 mins in presence of substrate/ATP by ADP-Glo assay.

Another test deals with 4T1-Luc. Description: Antitumor activity against mouse 4T1-Luc cells xenografted in BALB/C mouse assessed as delay in tumor growth at 10 mg/kg, ip dosed once a week for 15 days. Type of test: functional, organism-based. As to conditions: time 15.0 day.
Test [2] relates to MCF7. Put plainly: Induction of apoptosis in human MCF7 cells assessed as late apoptotic cells at 5 uM incubated for 48 hrs by Annexin V-FITC/PI staining based flow cytometry (reference value: 0.63 %). Format: functional. (In general: A flow cytometer gives signals particle by particle.)
Test [3] concerns 4T1. Description: Induction of apoptosis in 4T1 cells assessed as early apoptotic cells at 5 uM incubated for 48 hrs by Annexin V-FITC/PI staining based flow cytometry (reference value: 0.32 %). Format: functional, Mus musculus.
Test [4] deals with MCF7. Description: Induction of apoptosis in human MCF7 cells assessed as necrotic cells at 5 uM incubated for 48 hrs by Annexin V-FITC/PI staining based flow cytometry (reference value: 0.03 %). Type of test: functional.
The test system of test [5] is MCF7. Description: Induction of apoptosis in human MCF7 cells assessed as early apoptotic cells at 5 uM incubated for 48 hrs by Annexin V-FITC/PI staining based flow cytometry (reference value: 1.19 %). Format: functional.
In test [6] the test system is 4T1. Description: Induction of apoptosis in 4T1 cells assessed as necrotic cells at 5 uM incubated for 48 hrs by Annexin V-FITC/PI staining based flow cytometry (reference value: 0.20 %). Type of test: functional, Mus musculus.
Test [7] relates to 4T1. Put plainly: Induction of apoptosis in 4T1 cells assessed as late apoptotic cells at 5 uM incubated for 48 hrs by Annexin V-FITC/PI staining based flow cytometry (reference value: 1.73 %). Type of test: functional, Mus musculus.

As usually defined, the IC50 is the midpoint of a concentration-inhibition curve.

For the compound `c1cc2c(ccn2-c2nc(Nc3ccc(N4CCOCC4)cc3)nc3[nH]ccc23)cn1`, the half-maximal inhibitory concentration (IC50) in test [1] is 464 nM.
Regarding `COc1cc(N2CCOCC2)ccc1Nc1nc(-c2cnn(C)c2)c2cc[nH]c2n1`, the IC50 in test [1] is 34 nM.
The same measure, in the same setting: as for `CN1CCN(c2ccc(Nc3nc(-c4cnn(C)c4)c4cc[nH]c4n3)cc2)CC1`, the figure is 67 nM.
Take `CCc1ccccc1Nc1nc(-n2nc(N)c3ccccc32)c2cc[nH]c2n1`: the IC50 in test [1] worked out at 338 nM.
Take `CN1CCN(c2ccc(Nc3nc(-n4ccc5cnccc54)c4cc[nH]c4n3)cc2)CC1`: in test [1], the IC50 amounted to 149 nM.
`Nc1nn(-c2nc(Nc3ccccc3)nc3[nH]ccc23)c2ccccc12`: in test [1], the IC50 was determined as 106 nM.
The same measure, in the same setting: for `Nc1nn(-c2nc(Nc3ccccc3OC(F)(F)F)nc3[nH]ccc23)c2ccccc12` the value was 154 nM; for `COc1ccccc1Nc1nc(-n2nc(N)c3ccccc32)c2cc[nH]c2n1`, 51 nM.
Still for that read-out and setting: for `CCN1CCN(c2ccc(Nc3nc(-n4nc(N)c5ccccc54)c4cc[nH]c4n3)cc2)CC1` the value was 32 nM; for `CN1CCN(c2ccc(Nc3nc(-n4cnc5ccccc54)c4cc[nH]c4n3)cc2)CC1`, 83 nM; for `c1ccc2c(c1)ncn2-c1nc(Nc2ccc(N3CCOCC3)cc2)nc2[nH]ccc12`, 47 nM.
For the compound `c1ccc2c(c1)ccn2-c1nc(Nc2ccc(N3CCOCC3)cc2)nc2[nH]ccc12`, the IC50 in test [1] amounted to 144 nM.
Take `Nc1nn(-c2nc(Nc3ccccc3F)nc3[nH]ccc23)c2ccccc12`: in test [1], the IC50 was 54 nM.
Still for that read-out and setting: as for `COc1cc(N2CCOCC2)ccc1Nc1nc(-n2cnc3ccccc32)c2cc[nH]c2n1`, the figure is 40 nM; as for `CN1CCN(c2ccc(Nc3nc(-n4nc(N)c5ccccc54)c4cc[nH]c4n3)cc2Cl)CC1`, 50 nM; as for `Nc1nn(-c2nc(Nc3ccccc3Cl)nc3[nH]ccc23)c2ccccc12`, 68 nM.
Still for that read-out and setting: as for `Cc1cc(N2CCN(C)CC2)ccc1Nc1nc(-n2nc(N)c3ccccc32)c2cc[nH]c2n1`, the figure is 41 nM.
`CC(=O)O[C@H]1C(=O)[C@@]2(C)[C@H]([C@H](OC(=O)c3ccccc3)[C@]3(O)C[C@H](OC(=O)[C@H](O)[C@@H](NC(=O)c4ccccc4)c4ccccc4)C(C)=C1C3(C)C)[C@]1(OC(C)=O)CO[C@@H]1C[C@@H]2O`: the result with 4T1-Luc was Active.
As for `Cn1cc(-c2nc(Nc3ccc(N4CCOCC4)cc3)nc3[nH]ccc23)cn1`, the IC50 in test [1] is 49 nM.
With `COc1cc(N2CCOCC2)ccc1Nc1nc(-n2ccc3ccccc32)c2cc[nH]c2n1`, the IC50 in test [1] is 132 nM.
`CN1CCN(c2ccc(Nc3nc(-n4ccc5ccccc54)c4cc[nH]c4n3)cc2)CC1`: the IC50 in test [1] came out at 137 nM.
With `Cc1cc(N2CCOCC2)ccc1Nc1nc(NC2CCCCC2)c2nc[nH]c2n1`, the Activity is 4.31% in the test on MCF7 [2]; 1.56% in the test with 4T1 [3]; 0.35% in the test on MCF7 [4]; 5.46% with MCF7 [5]; 0.54% with 4T1 [6]; 9.86% with 4T1 [7].
On to `CN1CCN(c2ccc(Nc3nc(-n4nc(N)c5ccccc54)c4cc[nH]c4n3)cc2F)CC1`, for which, in test [1], the IC50 worked out at 35 nM.
In the case of `COc1cc(N2CCOCC2)ccc1Nc1nc(-n2ccc3cnccc32)c2cc[nH]c2n1`, in test [1], the IC50 came out at 154 nM.
Same read-out and setting: for `Nc1nn(-c2nc(Nc3ccc(N4CCOCC4)cc3)nc3[nH]ccc23)c2ccccc12` the value was 49 nM; for `COc1cc(N2CCOCC2)ccc1Nc1nc(-n2nc(N)c3ccccc32)c2cc[nH]c2n1`, 33 nM.
